According to US20090018111A1, “Novel Antimicrobial Medicament” (priority 2004, published 2009):
Where two headings read alike, the source gives them in different places.

Columns and labels:
Assay in all cases: Sensitivity test (agar dilution), clinical isolate
Acinetobacter spp. 1195 = type: cell-based, Acinetobacter calcoaceticus and Acinetobacter lwoffi
Description: (§1) In addition, the antibacterial activities were tested against strains which are comparatively less sensitive to β-lactam compounds, namely clinically isolated 13 strains of Acinetobacter calcoaceticus and Acinetobacter lwoffi, clinically isolated 11 strains of Serratia marcescens, clinically isolated 12 strains of Burkholderia cepacia, and clinically isolated 15 strains of Pseudomonas aeruginosa.
(§2) According to the standard method of Japan Chemotherapeutic Society (Chemotherapy, vol. […], p 76-79 (1981)) the test was carried out using the agar dilution method. After dissolving test samples in distilled water, agar medium containing the test samples was prepared in such a manner that the final concentration became twice serial dilution by pouring serially diluted combination drug solution or a single drug solution into agar medium. As agar medium was used Mueller Hinton Agar medium (MHA). Then, each strain was cultivated over night at 37° C. in an incubator and suspended in buffered saline solution with gelatin (BSG) in the concentration of about 10^6 CFU/ml. The suspension (about 5 μl) containing test strains was inoculated to the medium containing the test samples by Micro Planter.
(§3) Each drug was weighed, and dissolved in distilled water to give a test sample. When the drugs are used in combination, two kinds of solution containing each drug were mixed so as to be various ratio of concentration to give a mixed solution. When the sample is subjected to sensitivity test, this mixed solution was diluted by twice serial dilution method.
(§4) Furthermore, when the drug is solely used, each test sample was used as it is, and diluted by twice serial dilution method from the maximum concentration to the minimum concentration.

Acinetobacter spp. 175 = type: cell-based, Acinetobacter calcoaceticus and Acinetobacter lwoffi
Description: as §1, §2, §3, §4

Acinetobacter spp. 1198 = type: cell-based, Acinetobacter calcoaceticus and Acinetobacter lwoffi
Description: as §1, §2, §3, §4

B. cepacia 7438 = type: cell-based, Burkholderia cepacia
Description: as §1, §2, §3, §4

B. cepacia 1892324 = type: cell-based, Burkholderia cepacia
Description: as §1, §2, §3, §4

B. cepacia 14607 = type: cell-based, Burkholderia cepacia
Description: as §1, §2, §3, §4

B. cepacia 1993527 = type: cell-based, Burkholderia cepacia
Description: as §1, §2, §3, §4

B. cepacia 14300 = type: cell-based, Burkholderia cepacia
Description: as §1, §2, §3, §4

B. cepacia 14427 = type: cell-based, Burkholderia cepacia
Description: as §1, §2, §3, §4

B. cepacia 14429 = type: cell-based, Burkholderia cepacia
Description: as §1, §2, §3, §4

B. cepacia 3138 = type: cell-based, Burkholderia cepacia
Description: as §1, §2, §3, §4

B. cepacia 14428 = type: cell-based, Burkholderia cepacia
Description: as §1, §2, §3, §4

B. cepacia 7247 = type: cell-based, Burkholderia cepacia
Description: as §1, §2, §3, §4

B. cepacia 14430 = type: cell-based, Burkholderia cepacia
Description: as §1, §2, §3, §4

B. cepacia 257-1 = type: cell-based, Burkholderia cepacia
Description: as §1, §2, §3, §4

C[C@@H](O)[C@H]1C(=O)N2C(C(=O)O)=C(S[C@@H]3CN[C@H](C(=O)N(C)C)C3)[C@H](C)[C@H]12 [MEPM, meropenem]
MIC (Acinetobacter spp. 1195; SPP.1195): 0.125 µg/mL | MIC (Acinetobacter spp. 1195; SPP.1195, Concomitant (ME:SM = 1:1), read-out: MIC): 0.25 µg/mL | MIC (Acinetobacter spp. 1195; SPP.1195, Concomitant (ME:SM = 1:4), read-out: MIC): 0.063 µg/mL | MIC (Acinetobacter spp. 1195; SPP.1195, Concomitant (ME:SM = 2:1), read-out: MIC): 0.25 µg/mL | MIC (Acinetobacter spp. 1195; SPP.1195, alone, read-out: MIC): 0.25 µg/mL | MIC (Acinetobacter spp. 175; Acinetobacter, SPP.175): 0.125 µg/mL | MIC (Acinetobacter spp. 175; Acinetobacter, SPP.175, Concomitant (ME:SM = 1:2), read-out: MIC): 0.063 µg/mL | MIC (Acinetobacter spp. 175; Acinetobacter, SPP.175, Concomitant (ME:SM = 1:4), read-out: MIC): 0.063 µg/mL | MIC (Acinetobacter spp. 175; Concomitant (ME:SM = 1:1)): 0.125 µg/mL | MIC (Acinetobacter spp. 175; Concomitant (ME:SM = 2:1)): 0.125 µg/mL | MIC (Acinetobacter spp. 1198; SPP.1198): 0.125 µg/mL | MIC (Acinetobacter spp. 1198; SPP.1198, Concomitant (ME:SM = 1:1), read-out: MIC): 0.25 µg/mL | MIC (Acinetobacter spp. 1198; SPP.1198, Concomitant (ME:SM = 1:4), read-out: MIC): 0.063 µg/mL | MIC (Acinetobacter spp. 1198; SPP.1198, Concomitant (ME:SM = 2:1), read-out: MIC): 0.25 µg/mL | MIC (Acinetobacter spp. 1198; SPP.1198, alone, read-out: MIC): 0.5 µg/mL | MIC (B. cepacia 7438; Burkholderia cepacia, 7438, Concomitant (ME:SM = 1:1)): 2 µg/mL | MIC (B. cepacia 7438; Burkholderia cepacia, 7438, Concomitant (ME:SM = 1:2)): 1 µg/mL | MIC (B. cepacia 7438; Burkholderia cepacia, 7438, Concomitant (ME:SM = 1:4)): 2 µg/mL | MIC (B. cepacia 7438; Burkholderia cepacia, 7438, Concomitant (ME:SM = 2:1)): 2 µg/mL | MIC (B. cepacia 7438; Burkholderia cepacia, 7438, alone): 2 µg/mL | MIC (B. cepacia 1892324; Burkholderia cepacia, 1892324, Concomitant (ME:SM = 1:1)): 1 µg/mL | MIC (B. cepacia 1892324; Burkholderia cepacia, 1892324, Concomitant (ME:SM = 1:2)): 1 µg/mL | MIC (B. cepacia 1892324; Burkholderia cepacia, 1892324, Concomitant (ME:SM = 1:4)): 0.5 µg/mL | MIC (B. cepacia 1892324; Burkholderia cepacia, 1892324, Concomitant (ME:SM = 2:1)): 2 µg/mL | MIC (B. cepacia 1892324; Burkholderia cepacia, 1892324, alone): 2 µg/mL | MIC (B. cepacia 14607; Burkholderia cepacia, 14607, Concomitant (ME:SM = 1:1)): 1 µg/mL | MIC (B. cepacia 14607; Burkholderia cepacia, 14607, Concomitant (ME:SM = 1:2)): 0.5 µg/mL | MIC (B. cepacia 14607; Burkholderia cepacia, 14607, Concomitant (ME:SM = 1:4)): 0.5 µg/mL | MIC (B. cepacia 14607; Burkholderia cepacia, 14607, Concomitant (ME:SM = 2:1)): 1 µg/mL | MIC (B. cepacia 14607; Burkholderia cepacia, 14607, alone): 1 µg/mL | MIC (B. cepacia 1993527; Burkholderia cepacia, 1993527, Concomitant (ME:SM = 1:1)): 1 µg/mL | MIC (B. cepacia 1993527; Burkholderia cepacia, 1993527, Concomitant (ME:SM = 1:2)): 1 µg/mL | MIC (B. cepacia 1993527; Burkholderia cepacia, 1993527, Concomitant (ME:SM = 1:4)): 2 µg/mL | MIC (B. cepacia 1993527; Burkholderia cepacia, 1993527, Concomitant (ME:SM = 2:1)): 2 µg/mL | MIC (B. cepacia 1993527; Burkholderia cepacia, 1993527, alone): 2 µg/mL | MIC (B. cepacia 14300; Burkholderia cepacia, 14300, Concomitant (ME:SM = 1:1)): 0.5 µg/mL | MIC (B. cepacia 14300; Burkholderia cepacia, 14300, Concomitant (ME:SM = 1:2)): 0.5 µg/mL | MIC (B. cepacia 14300; Burkholderia cepacia, 14300, Concomitant (ME:SM = 1:4)): 0.25 µg/mL | MIC (B. cepacia 14300; Burkholderia cepacia, 14300, Concomitant (ME:SM = 2:1)): 0.5 µg/mL | MIC (B. cepacia 14300; Burkholderia cepacia, 14300, alone): 0.5 µg/mL | MIC (B. cepacia 14427; Burkholderia cepacia, 14427, Concomitant (ME:SM = 1:1)): 1 µg/mL | MIC (B. cepacia 14427; Burkholderia cepacia, 14427, Concomitant (ME:SM = 1:2)): 0.5 µg/mL | MIC (B. cepacia 14427; Burkholderia cepacia, 14427, Concomitant (ME:SM = 1:4)): 0.5 µg/mL | MIC (B. cepacia 14427; Burkholderia cepacia, 14427, Concomitant (ME:SM = 2:1)): 1 µg/mL | MIC (B. cepacia 14427; Burkholderia cepacia, 14427, alone): 1 µg/mL | MIC (B. cepacia 14429; Burkholderia cepacia, 14429, Concomitant (ME:SM = 1:1)): 1 µg/mL | MIC (B. cepacia 14429; Burkholderia cepacia, 14429, Concomitant (ME:SM = 1:2)): 0.5 µg/mL | MIC (B. cepacia 14429; Burkholderia cepacia, 14429, Concomitant (ME:SM = 1:4)): 0.5 µg/mL | MIC (B. cepacia 14429; Burkholderia cepacia, 14429, Concomitant (ME:SM = 2:1)): 1 µg/mL | MIC (B. cepacia 14429; Burkholderia cepacia, 14429, alone): 1 µg/mL | MIC (B. cepacia 3138; Burkholderia cepacia, 3138, Concomitant (ME:SM = 1:1)): 1 µg/mL | MIC (B. cepacia 3138; Burkholderia cepacia, 3138, Concomitant (ME:SM = 1:2)): 1 µg/mL | MIC (B. cepacia 3138; Burkholderia cepacia, 3138, Concomitant (ME:SM = 1:4)): 2 µg/mL | MIC (B. cepacia 3138; Burkholderia cepacia, 3138, Concomitant (ME:SM = 2:1)): 2 µg/mL | MIC (B. cepacia 3138; Burkholderia cepacia, 3138, alone): 2 µg/mL | MIC (B. cepacia 14428; Burkholderia cepacia, 14428, Concomitant (ME:SM = 1:1)): 1 µg/mL | MIC (B. cepacia 14428; Burkholderia cepacia, 14428, Concomitant (ME:SM = 1:2)): 1 µg/mL | MIC (B. cepacia 14428; Burkholderia cepacia, 14428, Concomitant (ME:SM = 1:4)): 0.5 µg/mL | MIC (B. cepacia 14428; Burkholderia cepacia, 14428, Concomitant (ME:SM = 2:1)): 1 µg/mL | MIC (B. cepacia 14428; Burkholderia cepacia, 14428, alone): 2 µg/mL | MIC (B. cepacia 7247; Burkholderia cepacia, 7247, Concomitant (ME:SM = 1:1)): 2 µg/mL | MIC (B. cepacia 7247; Burkholderia cepacia, 7247, Concomitant (ME:SM = 1:2)): 2 µg/mL | MIC (B. cepacia 7247; Burkholderia cepacia, 7247, Concomitant (ME:SM = 1:4)): 2 µg/mL | MIC (B. cepacia 7247; Burkholderia cepacia, 7247, Concomitant (ME:SM = 2:1)): 2 µg/mL | MIC (B. cepacia 7247; Burkholderia cepacia, 7247, alone): 2 µg/mL | MIC (B. cepacia 14430; Burkholderia cepacia, 14430, Concomitant (ME:SM = 1:1)): 1 µg/mL | MIC (B. cepacia 14430; Burkholderia cepacia, 14430, Concomitant (ME:SM = 1:2)): 1 µg/mL | MIC (B. cepacia 14430; Burkholderia cepacia, 14430, Concomitant (ME:SM = 1:4)): 2 µg/mL | MIC (B. cepacia 14430; Burkholderia cepacia, 14430, Concomitant (ME:SM = 2:1)): 2 µg/mL | MIC (B. cepacia 14430; Burkholderia cepacia, 14430, alone): 2 µg/mL | MIC (B. cepacia 257-1; Burkholderia cepacia, 2571, Concomitant (ME:SM = 1:1)): 0.5 µg/mL | MIC (B. cepacia 257-1; Burkholderia cepacia, 2571, Concomitant (ME:SM = 1:2)): 0.25 µg/mL | MIC (B. cepacia 257-1; Burkholderia cepacia, 2571, Concomitant (ME:SM = 1:4)): 0.25 µg/mL | MIC (B. cepacia 257-1; Burkholderia cepacia, 2571, Concomitant (ME:SM = 2:1)): 0.5 µg/mL | MIC (B. cepacia 257-1; Burkholderia cepacia, 2571, alone): 0.5 µg/mL
